Drawing on PMC12040169 (PLOS Biology, 2025), this text covers viability for 58 molecules.

Molecules are shown by their SMILES.

This data set is described as follows: in vitro. The conditions noted are these: human, hela cells, % viability.
In the case of `Cc1ccc(S(=O)(=O)N2CCN(C)CC2)cc1NC(=O)c1ccc(Br)o1` [CBK034260C], the viability at 28.5 h, 10 µM turned out to be 99.3%. Under `O=C(NCc1ccncc1)c1csc2c(C(F)(F)F)cc(N3CCN(Cc4ccccc4)CC3)nc12` [CBK034294T] stands 98.6%. Under `NC(=O)c1ccc(SCC(=O)O)c([N+](=O)[O-])c1` [CBK034310] stands 97.7%; under `CC(C)C(=O)NCCN1CCOCC1` [CBK034322], 115%; under `CCOC(=O)N1CCCN(C(=O)OCC)CC1` [CBK034324], 101%.

For `CCCc1ccc(S(=O)(=O)Nc2cccc(C(=O)OCC)c2)cc1` [CBK034332], the viability at 28.5 h, 10 µM is 92.5%. Under `CCOC(=O)c1cccc(NS(=O)(=O)c2cc(Br)ccc2OC)c1` [CBK034336] stands 63.3%; under `CCOC(=O)c1cccc(NS(=O)(=O)c2ccc(-c3ccccc3)cc2)c1` [CBK034341], 92.8%. Under `CCOC(=O)c1cccc(NS(=O)(=O)c2cccc3cccnc23)c1` [CBK034345] stands 57.2%; under `CCOC(=O)c1cccc(NS(=O)(=O)c2ccc(Br)cc2)c1` [CBK034346], 97.7%.

As to `CCOC(=O)c1cccc(NS(=O)(=O)c2ccc(NC(C)=O)cc2)c1` [CBK034349], the viability at 28.5 h, 10 µM stood at 78.8%. Under `CC(=O)Nc1cc(S(N)(=O)=O)c(F)cc1C` [CBK034356] stands 94.1%.

On to `CCN(CC)C(=O)c1ccc(NS(=O)(=O)c2cccc(Cl)c2C)cc1` [CBK034393], for which the viability at 28.5 h, 10 µM turned out to be 108%.

Consider `CCN(CC)C(=O)c1ccc(NS(=O)(=O)c2ccc(-c3ccccc3)cc2)cc1` [CBK034395], for which the viability at 28.5 h, 10 µM amounted to 97.5%. As to `CCCc1ccc(S(=O)(=O)Nc2ccc(C(=O)N(CC)CC)cc2)cc1` [CBK034403], the viability at 28.5 h, 10 µM came out at 92.3%. For `Cc1cc(F)c(S(=O)(=O)N2CCN(C)CC2)cc1NC(=O)c1cc2ccccc2o1` [CBK034419C], the viability at 28.5 h, 10 µM came to 94%.

For `CNS(=O)(=O)c1ccc(C)c(NC(C)=O)c1C` [CBK034426], the viability at 28.5 h, 10 µM was found to be 88.5%. `CCOC(=O)CNS(=O)(=O)c1cc(Cl)sc1Cl` [CBK034431]: the viability at 28.5 h, 10 µM is 113%.

On to `CCOC(=O)CNS(=O)(=O)Cc1ccccc1[N+](=O)[O-]` [CBK034439], for which the viability at 28.5 h, 10 µM worked out at 95.3%.

Consider `CCOC(=O)CNS(=O)(=O)c1cccc2cccnc12` [CBK034440], for which the viability at 28.5 h, 10 µM worked out at 115%. Consider `Cc1ccc(S(=O)(=O)NCC(=O)O)cc1[N+](=O)[O-]` [CBK034459], for which the viability at 28.5 h, 10 µM came out at 114%. With `O=C(O)CNS(=O)(=O)c1ccc(F)cc1` [CBK034464], the viability at 28.5 h, 10 µM stood at 122%.

For `Cc1noc(C)c1S(=O)(=O)NCC(=O)N1CCOCC1` [CBK034476], the viability at 28.5 h, 10 µM came to 94.9%.

With `CN1CCN(C(=O)CNS(=O)(=O)c2ccc(Br)cc2)CC1` [CBK034478], the viability at 28.5 h, 10 µM was found to be 101%.

With `CCN(CC)C(=O)CNS(=O)(=O)c1ccc(C)cc1` [CBK034491], the viability at 28.5 h, 10 µM was found to be 103%. `CCN(CC)C(=O)CNS(=O)(=O)c1cc(Br)c(Cl)s1` [CBK034500]: the viability at 28.5 h, 10 µM worked out at 112%. Next, `CN1CCN(C(=O)c2ccc(NS(=O)(=O)c3cc(Cl)sc3Cl)cc2)CC1` [CBK034549]: 94%; `CC(=O)Nc1ccc(S(=O)(=O)Nc2ccc(C(=O)N3CCOCC3)cc2)cc1` [CBK034564]: 94.9%; `CCn1nnc(C2=CCCN(C)C2)n1` [CBK034628E]: 104%. For the molecule `COc1ccccc1CN(CCCN)C(=O)NC(C)c1ccccc1` (stereo not shown) [CBK034667C], the viability at 28.5 h, 10 µM is 87.3%. Next, `CC(C)(C)c1ccccc1NC(=O)N(CCCN)Cc1cc(F)cc(F)c1` [CBK034697C]: 82.7%; `Cc1c(F)cccc1CN(CCCN)C(=O)Nc1ccccc1C(C)(C)C` [CBK034699C]: 89.3%. Next, `N#Cc1ccsc1NS(=O)(=O)c1ccc(Cl)c(Cl)c1` [CBK034735]: 95%; `O=C(NC(=O)C1CCNCC1)Nc1ccc(F)cc1F` [CBK034793]: 115%; `COc1cccc(NC(=O)NC(=O)C2CCN(C(C)C)CC2)c1` [CBK034798]: 89.6%. `COc1cc(CNC(=O)NC(=O)C2CCN(C(C)C)CC2)cc(OC)c1OC` [CBK034800]: the viability at 28.5 h, 10 µM was 82.9%. Next, `CC(C)N1CCC(C(=O)NC(=O)NCCc2ccc3c(c2)OCO3)CC1` [CBK034804]: 96.6%. For the molecule `Cc1ccc(OCCNC(=O)NC(=O)C2CCN(C)CC2)c2c1CCC2` [CBK034824], the viability at 28.5 h, 10 µM was 115%. Under `CN1CCC(C(=O)NC(=O)NC2CCCCC2)CC1` [CBK034825] stands 112%; under `CN1CCC(C(=O)NC(=O)Nc2ccccc2F)CC1` [CBK034827], 93.2%; under `COc1ccccc1NC(=O)NC(=O)C1CCN(C)CC1` [CBK034830], 96.6%. Next, `COc1cc(NC(=O)NC(=O)C2CCN(C(C)=O)CC2)cc(OC)c1OC` [CBK034831]: 114%; `CC(=O)N1CCC(C(=O)NC(=O)NCc2ccc3c(c2)CCO3)CC1` [CBK034837]: 93.8%; `CC(=O)N1CCC(C(=O)NC(=O)NCCOc2ccccc2Cl)CC1` [CBK034842]: 97.9%. Turning to `CC(=O)N1CCC(C(=O)NC(=O)Nc2ccccc2F)CC1` [CBK034848], the viability at 28.5 h, 10 µM was 107%. For the molecule `CCOc1ccc(NC(=O)NC(=O)C2CCN(C(C)=O)CC2)cc1` [CBK034852], the viability at 28.5 h, 10 µM was 119%. Consider `COc1ccccc1NC(=O)NC(=O)C1CCN(C(C)=O)CC1` [CBK034853], for which the viability at 28.5 h, 10 µM stood at 119%. Next, `CC(=O)N1CCC(C(=O)NC(=O)Nc2cccc(C)c2)CC1` [CBK034854]: 94.3%. Turning to `COc1ccc(CCCN2CCC(C(=O)NC(=O)Nc3cc(OC)c(OC)c(OC)c3)CC2)cc1` [CBK034855], the viability at 28.5 h, 10 µM turned out to be 86.3%. Next, `COc1cc(CNC(=O)NC(=O)C2CCN(CCc3cccc(O)c3)CC2)cc(OC)c1OC` [CBK034857]: 93.2%; `COc1cc(CNC(=O)NC(=O)C2CCN(CCc3c(-c4ccccc4)[nH]c4ccccc34)CC2)cc(OC)c1OC` [CBK034859]: 91.7%. Under `COc1ccc(CNC(=O)NC(=O)C2CCN(S(C)(=O)=O)CC2)c(OC)c1` [CBK034861] stands 89.4%; under `COc1ccc(CNC(=O)NC(=O)C2CCN(CCc3c[nH]c4ccccc34)CC2)c(OC)c1` [CBK034864], 90%; under `COc1ccccc1CCCN1CCC(C(=O)NC(=O)Nc2ccccc2)CC1` [CBK034865], 89.7%. Under `Cc1cccc(NC(=O)NC(=O)C2CCN(CCOc3ccccc3)CC2)c1` [CBK034868] stands 89.9%; under `CC(C)c1ccc(NC(=O)NC(=O)C2CCN(CCOc3ccc4ccccc4c3)CC2)c(C(C)C)c1` [CBK034883], 96%.

With `O=C(NCCOc1ccccc1Cl)NC(=O)C1CCN(CCOc2ccc(Br)cc2)CC1` [CBK034897], the viability at 28.5 h, 10 µM was determined as 84.6%. Under `COc1ccccc1NC(=O)NC(=O)C1CCN(CCc2cccs2)CC1` [CBK034912] stands 87.5%.
